# According to patent US6632621B1, “G protein-coupled receptor-like receptors and modulators thereof” (priority 1999, dated 2003):
# Like-named read-outs stand apart in the source and are kept apart here. Where a SMILES comes first, the peptide text is derived from it. Where no end group is shown, it is not given here. [ ]: non-standard residue; d: D form. Tyr(3-I) = N[C@@H](Cc1ccc(O)c(I)c1)C(=O)O
# Columns and labels:
# Format in all cases: biochemical, C. elegans
# [1] = target: T1, CEGPCR12h receptor (Caenorhabditis elegans, UniProt Q20275); assay: [35S]GTPγS binding assay, CEGPCR12h expressed in CHO cells; details: for activity at single concentration: peptides tested at 5 μM
# T1 sequence (Q20275 1-402): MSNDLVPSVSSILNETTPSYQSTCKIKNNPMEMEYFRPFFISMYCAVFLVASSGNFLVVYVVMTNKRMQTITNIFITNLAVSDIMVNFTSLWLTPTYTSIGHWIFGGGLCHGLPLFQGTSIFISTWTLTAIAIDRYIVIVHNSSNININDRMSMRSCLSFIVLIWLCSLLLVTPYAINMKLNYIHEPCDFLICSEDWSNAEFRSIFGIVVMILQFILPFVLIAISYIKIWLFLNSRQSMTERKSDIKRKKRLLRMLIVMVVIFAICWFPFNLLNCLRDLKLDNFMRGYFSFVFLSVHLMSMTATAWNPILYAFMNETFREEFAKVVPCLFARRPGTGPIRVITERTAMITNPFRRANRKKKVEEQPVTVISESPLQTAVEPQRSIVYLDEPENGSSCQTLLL
# Procedure: (§1) Recombinant pCR3.1 clones encoding invertebrate GPCR-like receptors were transformed into wild-type CHO-K1 cells and functional expression was achieved using a temperature-shift incubation protocol. The CHO-K1 cells were cultured at 37° C. in a humidified atmosphere of 5% CO2 in air in DMEM medium supplemented with 10% heat-inactivated fetal bovine serum (i.e., FBS), 10 μg/ml gentamicin, and 0.1 mM nonessential amino acids to give complete DMEM medium. Additionally, for incubations at temperatures lower than 37° C., the medium was fortified with 10 mM HEPES (pH 7.4). Cells were transfected with recombinant pCR3.1 clones containing GPCR-like receptor DNAs, using LipofectAMINE PLUS™, essentially according to the manufacturer's instructions. […] In separate plastic tubes, PLUS (20 μl/plate; Life Technologies) was added to 0.75 ml/plate of recombinant plasmid DNA in OptiMEM (5 μg/plate; Gibco/BRL—Life Technologies), mixed and incubated at room temperature for 15 minutes. Separately, LipofectAMINE (30 μl/plate) was mixed with 0.75 ml OptiMEM and added to the pre-complexed DNA/PLUS mixture and incubated at room temperature for 15 minutes. The culture medium was then replaced with serum-free transfection medium (DMEM, 5 ml/plate). The DNA-PLUS-LipofectAMINE complex was then added to the plates (1.5 ml/plate) and mixed gently into the medium, followed by a 3 hour incubation at 37° C. in 5% CO2. At this time, the medium was supplemented with complete DMEM medium containing 20% FBS (6.5 ml/plate) and incubation was continued at 37° C. in 5% CO2. After a total of 24 hours at 37° C. in 5% CO2, the medium was replaced with complete DMEM medium fortified with 10 mM HEPES (10 ml/plate) and the cells were moved to an incubator maintained at 28-30° C. in a humidified atmosphere of 5% CO2 in air. The incubation continued for an additional 24 hours, typically at the lower temperature indicated above. A plasmid encoding Green Fluorescent Protein (i.e., GFP, 4 μg/plate) was used for transient GFP expression in CHO-K1 cells to estimate the transfection yields under the same conditions as used for GPCR-like receptor polynucleotides.
# (§2) To assess expression, membranes were prepared from transfected CHO-K1 cells. Transfected cells were washed once with ice-cold Dulbecco's phosphate-buffered saline (i.e., PBS), 5 ml per 10 cm plate, and the cells were scraped into 5 ml of the same buffer. Cell suspensions from multiple plates were combined and centrifuged at 500×g for 10 minutes at 4° C. The cell pellet was reconstituted in ice-cold TEE (25 mM Tris, pH 7.4, 5 mM EGTA, 5 mM EDTA). Convenient aliquots were snap-frozen in liquid nitrogen and stored at −70° C. After thawing, the cells were homogenized and centrifuged at 500×g for 5 minutes at 4° C. to pellet nuclei and unbroken cells. Tile supernatant was centrifuged at 47,000×g for 30 minutes at 4° C. The membrane pellet was washed once with TEE, resuspended in 20 mM HEPES, pH 7.4, 100 mM NaCl, 10 mM MgCl2, 1 mM EDTA (assay buffer), distributed into aliquots of 0.5-1.0 ml, and frozen in liquid nitrogen. Membrane aliquots were stored at −70° C. Membrane protein concentration was determined using the BCA Protein Assay Reagent from Pierce (Rockford, Ill.), with bovine serum albumin (i.e., BSA) as a standard.
# (§3) Aliquots of cell membranes prepared as described above and stored at −70° C. were thawed, homogenized, and diluted into buffer containing 20 mM HEPES, pH 7.4, 10 mM MgCl2, 1 mM EDTA, and 100 mM NaCl at a concentration of 10-50 μg/ml. Reaction mixtures were prepared in 96-well polypropylene plate, Nunc. Twenty microliters of a 10× putative modulator compound (including but not limited to potential peptide ligands) solution or a water control (20 μl), 18.2 µM GDP (0.11 ml, 10 μM final concentration), and a membrane preparation were mixed and placed on ice. The modulator/ligand-GDP-membrane mixtures were incubated for 20 minutes at room temperature on a shaking platform and then placed on ice.
# [2] = target: T2, CEGPCR16 receptor (Caenorhabditis elegans, UniProt Q9XXU4); assay: [35S]GTPγS binding assay, CEGPCR16 expressed in CHO cells
# T2 sequence (Q9XXU4 1-365): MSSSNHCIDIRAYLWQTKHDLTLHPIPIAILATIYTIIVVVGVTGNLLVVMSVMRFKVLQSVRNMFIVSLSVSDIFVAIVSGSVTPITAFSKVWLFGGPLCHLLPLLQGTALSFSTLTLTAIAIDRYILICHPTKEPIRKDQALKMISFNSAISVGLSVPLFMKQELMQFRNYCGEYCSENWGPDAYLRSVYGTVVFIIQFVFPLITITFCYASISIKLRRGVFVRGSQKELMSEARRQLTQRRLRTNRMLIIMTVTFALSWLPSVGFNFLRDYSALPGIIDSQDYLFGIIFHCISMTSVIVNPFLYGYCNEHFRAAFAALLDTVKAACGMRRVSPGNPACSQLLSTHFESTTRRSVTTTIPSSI
# Procedure: as §1, §2, §3
# [3] = target: T3, CEGPCR5 (Caenorhabditis elegans, UniProt Q18179); assay: [35S]GTPγS binding assay, CEGPCR5 expressed in CHO cells
# T3 sequence (Q18179 1-402): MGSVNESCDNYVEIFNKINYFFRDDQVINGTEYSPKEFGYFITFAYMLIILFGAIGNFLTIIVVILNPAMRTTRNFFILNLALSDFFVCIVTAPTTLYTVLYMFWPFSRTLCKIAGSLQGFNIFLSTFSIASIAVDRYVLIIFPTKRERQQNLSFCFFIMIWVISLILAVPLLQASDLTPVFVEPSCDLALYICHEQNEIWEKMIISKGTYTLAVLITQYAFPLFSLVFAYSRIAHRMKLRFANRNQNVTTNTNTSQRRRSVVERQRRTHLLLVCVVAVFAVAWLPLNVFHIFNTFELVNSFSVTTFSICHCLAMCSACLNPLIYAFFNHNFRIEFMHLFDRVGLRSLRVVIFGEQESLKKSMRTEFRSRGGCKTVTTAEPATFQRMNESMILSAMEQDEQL
# Procedure: as §1, §2, §3
# [4] = EC50 range, Table 11, one range for the group, results apply to all CEGPCR12 isoforms
# [5] = Table 10, one range for the group of peptides, read-out: EC50 range
# [6] = EC50 range, Table 9, one range for the group of peptides
molecule,measurement,setting,value
TDVDHVFLRF-NH2 [TDVDHVFLRF-NH2],EC50,[1]; [4],1500 to 3000 nM
SEVPGVLRF-NH2 [SEVPGVLRF-NH2],EC50,[2]; [5],700 to 4600 nM
ARGPQLRLRF-NH2 [ARGPQLRLRF-NH2],EC50,[3]; [6],1000 to 8000 nM
DVPGVLRF-NH2 [DVPGVLRF-NH2],EC50,[2]; [5],700 to 4600 nM
same,activity at single concentration,[1]; Table 11,active at
SADDSAPFGTMRF-NH2 [SADDSAPFGTMRF-NH2],EC50,[2]; [5],60 to 300 nM
DPSFLRF-NH2 [DPSFLRF-NH2],EC50,[3],80 to 800 nM
YGLGPRPLRF-NH2 [YGLGPRPLRF-NH2],EC50,[3]; [6],80 to 800 nM
SVPGVLRF-NH2 [SVPGVLRF-NH2],EC50,[2]; [5],60 to 300 nM
same,EC50,[2]; read-out: EC50,64 nM
same,EC50,[3],80 to 800 nM
same,activity at single concentration,[1]; Table 11,active at
EIVFHQISPIFFRF-NH2 [EIVFHQISPIFFRF-NH2],EC50,[3],1000 to 8000 nM
DFDGAMPGVLRF-NH2 [DFDGAMPGVLRF-NH2],EC50,[2]; [5],700 to 4600 nM
CC(C)C[C@H](NC(=O)[C@H](Cc1ccccc1)NC(=O)[C@@H](NC(=O)[C@H](Cc1c[nH]cn1)NC(=O)[C@H](CC(=O)O)NC(=O)[C@@H](NC(=O)[C@H](CC(=O)O)NC(=O)[C@@H]1CCCN1C(=O)[C@@H](N)Cc1ccc(O)c(I)c1)C(C)C)C(C)C)C(=O)N[C@@H](CCCNC(=N)N)C(=O)N[C@@H](Cc1ccccc1)C(N)=O [[I]Y^0PDVDHVFLRF-NH2] (H-[Tyr(3-I)]PDVDHVFLRF-NH2),EC50,[1]; EC50,478 nM
same,EC50,[1]; [4],300 to 500 nM
TNRNFLRF-NH2 [TNRNFLRF-NH2],EC50,[3]; [6],80 to 800 nM
EDGNAPFGTMRF-NH2 [EDGNAPFGTMRF-NH2],EC50,[2]; [5],60 to 300 nM
SPLGTMRF-NH2 [SPLGTMRF-NH2],EC50,[2]; [5],60 to 300 nM
AGAKFIRF-NH2 [AGAKFIRF-NH2],EC50,[3],1000 to 8000 nM
GMPGVLRF-NH2 [GMPGVLRF-NH2],EC50,[2]; [5],60 to 300 nM
same,EC50,[3],1000 to 8000 nM
same,activity at single concentration,[1]; Table 11,active at
FDDYGHLRF-NH2 [FDDYGHLRF-NH2],EC50,"[1]; Table 11, one range for the group, results apply to all CEGPCR12 isoforms, read-out: EC50 range",300 to 500 nM
EIPGVLRF-NH2 [EIPGVLRF-NH2],EC50,[2]; [5],700 to 4600 nM
